Paper PMC6962389, “Somatostatin receptor mediated targeting of acute myeloid leukemia by photodynamic metal complexes for light induced apoptosis” (Scientific Reports, 2020)
Where two headings read alike, the source gives them in different places.

Tests used:
Format in all cases: cell-based, human
CD34+ enriched CB cells = assay: CFC assay on CD34+ enriched cord blood cells; conditions: unconjugated RU-Alkyne; ±4.88% SEM; n = 6 CB samples
Experimental: Cells from cord blood (CB) were enriched for CD34^+ using the human CD34 Micro Bead Kit ultrapure (Miltenyi Biotec, Auburn, CA, USA) according to the manufacturer instructions.
To evaluate the toxicity of the bioconjugate on clonogenic progenitor cells, AML cell lines as well primary human cells were incubated with the compound for 4 hours. Subsequently, cells were washed and cell counts were determined via trypan blue exclusion. Colony forming cell unit (CFC) assays were performed as described previously. In all cases cell numbers placed in methylcellulose were calculated according to the initial cell number at the start of the experiment, not taking into account any cell loss during the incubation time. 1000 cells (OCI-AML3 and HL60) and 500 cells (THP1) were plated per dish (methocult H4330). […]
To evaluate, whether the effect of the compound was selective for AML stem and progenitor cells, we analysed the toxicity of the compound for CD34^+ enriched CB cells (n = 6). […]
Figure 3 Effect of RU-complexes on clonogenicity of normal CD34^+ cells: cells from […] CD34^+ enriched cord blood (CB) samples (n = 6) were tested for the effect of both RUSST and RU-Alkyne compounds. […] Percent reduction was determined based on the colony numbers generated from CB cells treated with RU-SST and exposed to light compared to dark RU-SST. […] Significance calculated by Mann-Whitney test ** < 0.01.

OCI-AML3 cells = assay: CFC assay (clonogenic growth in methylcellulose), OCI-AML3; conditions: unconjugated control, 4 h incubation, day 14
Experimental: (§1) To evaluate the toxicity of the bioconjugate on clonogenic progenitor cells, AML cell lines as well primary human cells were incubated with the compound for 4 hours. Subsequently, cells were washed and cell counts were determined via trypan blue exclusion. Colony forming cell unit (CFC) assays were performed as described previously. In all cases cell numbers placed in methylcellulose were calculated according to the initial cell number at the start of the experiment, not taking into account any cell loss during the incubation time. 1000 cells (OCI-AML3 and HL60) and 500 cells (THP1) were plated per dish (methocult H4330). For primary patient samples, 10,000 cells were plated per dish in methylcellulose H4330 (Stem Cell Technologies, Vancouver, BC, Canada) and supplemented with cytokines. For the CD34^+ enriched CB cells, 300 cells were plated per dish in methocult H4434 (Stem Cell Technologies, Vancouver, BC, Canada). Each experiment was performed in duplicates and values mentioned are Mean ± SEM.
We could detect a significant decrease in colony growth in the OCI AML3 cell line with a 92% reduction of colony growth when the cells were incubated with RU-SST and exposed to light compared to the cells treated with RU-SST and not exposed to light (Fig. 2A).
Significance was calculated using the Mann-Whitney test (** < 0.01). […]

[1] = tested on: primary AML patient samples (clonogenic progenitor cells); assay: CFC assay on primary AML patient samples; set-up: average reduction in CFC numbers, with exposure to light / % reduction of CFC: concentration or dose not given beside the values; conditions: for CFC/10^4 cells: 4 h incubation, day 14
Source text: Mononuclear cells were isolated from bone marrow (BM) or peripheral blood (PB) from patients with primary diagnosed AML, analyzed for their SSTR2 expression (n = 13) and cultured with the RU-SST bioconjugate to test the toxicity of the compound (n = 6). All patient samples were investigated by cytomorphological, cytogenetic and molecular analyses after written informed consent as described. Diagnosis was made according to the French-American-British criteria and the World Health Organization classification (Table 1)[11],[12]. The study was approved by the ethic committee of the University of Ulm. in accordance with the ethical principles of the declaration of Helsinki (http://www.wma.net/en/30publications/10policies/b3/index.html). Leukemic cells were thawed and kept in culture with culture conditions as mentioned previously.
as §1

HL60 cells = assay: Determination of the IC50 in HL60 cells (trypan blue exclusion, light/dark); conditions: 10–100 µM
Experimental: Figure 1 Uptake and IC50 studies of RU complex: confocal images of OCI-AML3 cells incubated with RU-SST (50 μm) (A) and RU-Alkyne control (RU-Alk) (100μm) (B) for 4 hrs. The laser intensity was measured for alexaflour (430 nm). Uptake characteristics with values of the integrated intensity (a.u.) per cell (C). Bar graphs indicate the average integrated intensity per cell in both experimental arms. Cells analysed for RU-SST (n = 45) and RU-Alk (n = 44). Data are represented as mean ± SEM. (D) IC50 was calculated in HL60 AML cell lines. Percent cell survival was measured by trypan blue exclusion after 4 h incubation with RU-Alk (control), RU-SST (irradiated) compared to RU-SST in the absence of light (dark RU). Experiments performed for dark RU-SST (n = 6); RU-Alk (n = 3), for RU-SST (n = 3). Data are represented as mean ± SEM. […]
phenylalanine as an internal standard (Int. std.) was added to remove large proteins and the solution was centrifuged at […] for 30 min at 0 °C. […] The amount of RU-SST in each sample was determined as a ratio of the integration of the mass chromatogram of RU-SST to the int. std. […]
For this purpose, we chose a high SSTR2 expressing cell line, HL60 2 . […] The cell viability was quantified by trypan blue exclusion. IC50 values were calculated using R-statistical package. […]

SMILES: C#Cc1ccnc(-c2ccccn2)c1.[Cl-].[Cl-].[Ru+2].c1ccc(-c2ccccn2)nc1.c1ccc(-c2ccccn2)nc1 [RU-Alkyne]
- reduction in colony numbers compared to dark RU-SST (CD34+ enriched CB cells): 18.59%
- colony growth, exposed or not exposed to light (OCI-AML3 cells): no comparable reduction in colony growth
- % reduction of CFC ([1]; AML#1, 6 min RU-Alk (light) vs dark RU-SST): 22%
- CFC/10^4 cells ([1]; AML#1, 6 min RU-Alk (light)): 78 CFC/10^4 cells
- % reduction of CFC ([1]; AML#1, Dark RU-Alk vs dark RU-SST): 0%
- CFC/10^4 cells ([1]; AML#1, Dark RU-Alk): 153 CFC/10^4 cells
- % reduction of CFC ([1]; AML#2, 6 min RU-Alk (light) vs dark RU-SST): 17.7%
- CFC/10^4 cells ([1]; AML#2, 6 min RU-Alk (light)): 208 CFC/10^4 cells
- % reduction of CFC ([1]; AML#2, Dark RU-Alk vs dark RU-SST): 2.0%
- CFC/10^4 cells ([1]; AML#2, Dark RU-Alk): 247 CFC/10^4 cells
- % reduction of CFC ([1]; AML#3, 6 min RU-Alk (light) vs dark RU-SST): 0%
- CFC/10^4 cells ([1]; AML#3, 6 min RU-Alk (light)): 211 CFC/10^4 cells
- % reduction of CFC ([1]; AML#3, Dark RU-Alk vs dark RU-SST): 0%
- CFC/10^4 cells ([1]; AML#3, Dark RU-Alk): 187 CFC/10^4 cells
- % reduction of CFC ([1]; AML#4, 6 min RU-Alk (light) vs dark RU-SST): 48.9%
- CFC/10^4 cells ([1]; AML#4, 6 min RU-Alk (light)): 24 CFC/10^4 cells
- % reduction of CFC ([1]; AML#4, Dark RU-Alk vs dark RU-SST): 38.2%
- CFC/10^4 cells ([1]; AML#4, Dark RU-Alk): 29 CFC/10^4 cells
- % reduction of CFC ([1]; AML#5, 6 min RU-Alk (light) vs dark RU-SST): 41.5%
- CFC/10^4 cells ([1]; AML#5, 6 min RU-Alk (light)): 69 CFC/10^4 cells
- % reduction of CFC ([1]; AML#5, Dark RU-Alk vs dark RU-SST): 38.9%
- CFC/10^4 cells ([1]; AML#5, Dark RU-Alk): 72 CFC/10^4 cells
- % reduction of CFC ([1]; AML#6, 6 min RU-Alk (light) vs dark RU-SST): 58.7%
- CFC/10^4 cells ([1]; AML#6, 6 min RU-Alk (light)): 29 CFC/10^4 cells
- % reduction of CFC ([1]; AML#6, Dark RU-Alk vs dark RU-SST): 48.5%
- CFC/10^4 cells ([1]; AML#6, Dark RU-Alk): 36 CFC/10^4 cells
- average reduction in CFC numbers, with exposure to light ([1]; RU-Alkyne with exposure to light, 6 primary AML samples, mean (SEM), not significant): 31.4%
- IC50 (HL60 cells; 4 h incubation in the dark, washed, 470 nm LED 6 min (6.9 ± 0.9 J cm-2), probit regression, n = 3, mean ± SEM, read-out: IC50 after light irradiation): > 100 µM
- IC50 (HL60 cells; 4 h incubation, not exposed to light, IC50 not reached with up to 100 µM, dark RU-SST n = 6, read-out: IC50 in the dark): > 100 µM
